Laboratory results from publication PMC12320299 (Chemical Science, 2025).

Key:
[1] = biological target: T1, ATP-dependent RNA helicase DDX3X (Homo sapiens, UniProt O00571); assay: Peptide centric local stability assay in SW480 whole cell lysate; type: binding; details: 1 μM
T1 construct: endogenous in cells; host or cells: SW480 whole cell lysate
Source text: The method relies on a limited-proteolysis strategy, where ligand-binding on target proteins is expected to increase the stability of the proteins against proteolytic digestion. This specifically enables the identification of target proteins of small molecules. […] Being a ruthenium(arene) derivative, plecstatin-1 was used to assess potential non-specific interactors of the ruthenium(cymene) fragment. […] However, among the selective interaction partners, we found specific peptides of ATP-dependent RNA helicase DDX3X, tubulin alpha-1A (TUBA1A) and albumin (ALB). Several peptides of TUBA1A and ALB were also found to be stabilized by plecstatin-1 indicating low specificity.
Peptide Local Stability Assay
SW480 cancer cells were cultivated in complete medium as above in two T75 adherent flasks.
The protein extraction was performed on ice. The flasks were washed twice with PBS (1×, 5 mL) and the wash solution was completely removed. Then, PBS (1×, 2mL, containing 1% PPC) was added in each T75 flak. The cells were scraped off and the cell suspension was transferred to 15 mL falcon tubes. […]
The clear supernatant was pooled in a 5 mL Eppendorf tube and kept on ice. The protein concentration was determined using a BCA assay as described above and adjusted to 1 µg/µL using PBS (1×, containing 1% PPC). […]

[2] = Tissue and plasma proteome profiling of 1a-treated CT26-bearing mice; type: in vivo, BALB/c mice; details: 10 mg kg^−1, five days
Source text: On day five, tumour, liver and blood were harvested two hours after the last injection of 1a. Blood plasma and livers were harvested to obtain insight into systemic drug effects and tumours were collected to obtain information about local effects of the candidate drug.
For proteomic workup, the fresh tissue samples were quickly rinsed with PBS and shock-frozen in liquid nitrogen. Blood plasma was immediately prepared by centrifugation of the collected blood in ethylenediaminetetraacetic acid (EDTA) tubes. The samples were analysed in technical duplicates due to the expected larger heterogeneity and statistical evaluation was performed using the LIMMA algorithm[73] and gene set variation analysis (GSVA).[74] […] Statistical significance was calculated based on multi-parameter testing-adjusted P-values […].
Animals. All experiments were carried out with male Balb/c mice according to the regulation of the Ethics Committee for the Care and Use of Laboratory Animals at the Medical University Vienna (BMWF-2022-0.770.291), the guidelines from the Austrian Animal Science Association and the Federation of European Laboratory Animal Science Associations (FELASA). The animals were kept in a pathogen-free conditions, controlled environment with 12 h light–dark cycle with ad libitum access to food and water. Every procedure was done in a laminar airflow […]
Treatment. CT-26 cells ([…] in 50 μL serum-free medium) were injected subcutaneously (s.c.) into the right flank of ten– to eleven-week-old male Balb/c mice. Three days after cell injection, all compounds (dissolved in 10% DMSO in water) were administered […]
In case of the proteomic profiling […]
in water for 5 consecutive days. On the last day, 2 h after the last treatment, mice were euthanized, and blood was collected in an EDTA tube via heart punctation. Tumours and livers were harvested, quickly rinsed with PBS and snap-frozen in liquid nitrogen. Blood plasma was obtained by centrifugation (2×10 min at 900 g). […]
Sample Processing. All steps were performed on ice. The frozen tissue samples (weights ranging from 8.6– 51.5 mg) were transferred to 15 mL Falcon tubes containing 150 µL sodium deoxycholate lysis buffer (SDC; 0.4 g SDC, 500 μL Tris∙HCl (pH 8.8) in 9.5 mL H2O) and homogenized with a sonication probe (Bandelin Sonoplus HD 2070; Bandelin Electronic GmbH & Co. KG, Berlin, Germany). After sonication the homogenates were centrifuged at 10.000 g for 5 minutes and the resulting supernatant was transferred to new reaction tubes. […]
EDTA-anticoagulated plasma samples were diluted in SDC buffer at a ratio of 1 : 20, heated at 95 °C for 5 min and stored at –20 °C. The protein concentration of each sample was determined using a BCA assay. […]

T1 sequence (O00571 whole entry): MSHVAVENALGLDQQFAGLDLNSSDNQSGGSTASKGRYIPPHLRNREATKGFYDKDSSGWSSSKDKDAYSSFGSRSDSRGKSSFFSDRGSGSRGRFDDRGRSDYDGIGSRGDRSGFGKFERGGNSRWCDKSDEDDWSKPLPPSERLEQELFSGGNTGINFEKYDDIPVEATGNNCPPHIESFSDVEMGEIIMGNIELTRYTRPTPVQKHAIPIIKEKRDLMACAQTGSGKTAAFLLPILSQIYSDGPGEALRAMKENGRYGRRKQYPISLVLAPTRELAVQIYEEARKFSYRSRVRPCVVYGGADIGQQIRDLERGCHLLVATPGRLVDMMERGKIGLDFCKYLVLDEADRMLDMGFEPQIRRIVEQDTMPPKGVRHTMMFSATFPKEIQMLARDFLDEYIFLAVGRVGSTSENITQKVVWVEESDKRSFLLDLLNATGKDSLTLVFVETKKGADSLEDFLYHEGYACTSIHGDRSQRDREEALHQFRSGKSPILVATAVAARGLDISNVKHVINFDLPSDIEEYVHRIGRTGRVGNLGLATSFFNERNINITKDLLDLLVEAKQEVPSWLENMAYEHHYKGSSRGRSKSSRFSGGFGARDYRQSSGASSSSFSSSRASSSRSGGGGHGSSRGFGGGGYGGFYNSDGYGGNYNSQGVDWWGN

CCC1=C2[O][Ru][O]C2(n2cccn2)c2ccccc2C1=O.Cc1ccc(C(C)C)cc1 (centres unmarked) [Compound 1a, [(3-ethyl-4-oxo-(pyrazolyl)-dihydronaphthalene)(cymene)ruthenium(II)]]
direct interaction with DDX3X [1]: most probable direct binding partner | EGFR level in tumour [2]: down-regulated | statistically significant regulations, plasma ([2]; of 285 identified): 79 | statistically significantly regulated proteins, liver ([2]; of 2770 identified): 14 | statistically significant regulations, tumour ([2]; of 3867 identified): 5
